“Also recorded” adds a separate entry of the source. Peptide text beside a SMILES is read from it. * marks the point of attachment. X1 = O=C(CCc1ccc(O)c(O)c1)NCCCC[C@H](NC(=O)CCc1ccc(O)c(O)c1)C(=O)*; FITC = O=C1OC2(c3ccc(O)cc3Oc3cc(O)ccc32)c2ccc(NC(=S)*)cc21; Dihydrocaffeoyl = O=C(CCc1ccc(O)c(O)c1)*

Series [1] in a line: Live/Dead viability assay. As to conditions: mouse; immobilized on TiO2 substrates, cultured 24 hours. The class given is cell-based. As for the experimental part:
The toxicity of the dendron of the embodiments of the present invention was tested using mouse calvarial pre-osteoblast cells ([…]) cells. The MC3T3-E1 cells were seeded on the TiO2 substrates with immobilized FITC-labeled OGP-Cat and cultured for 24 hours. […] The cells were well spread on the peptide-bearing surfaces, which is a consistent with an adherent proliferating cell population. See also, Example 17.
MC3T3-E1 mouse preosteoblast (passage 17) were expanded and cultured in α-MEM media (Gibco, Life Technologies, Grand Island, N.Y.) supplemented with 10% fetal bovine serum (FBS) (Invitrogen), 100 units/mL penicillin (Invitrogen), and 100 μg/mL streptomycin (Invitrogen) at 37° C. in a 5% CO2 humidified atmosphere. The cells were subcultured every 3 days in the presence of 0.25% (w/v) trypsin and 0.5% (w/v) ethylenediaminetetraacetic acid tetrasodium salt (EDTA) solution. […]
Viability of the cell culture of Example 16 above was evaluated using a Live/Dead viability/cytotoxicity kit (Invitrogen, UK). […] The staining solution was removed and the samples were viewed under the IX81 fluorescence microscope (Olympus) with 494 nm (green, Calcein) and 528 nm (red, EthD-1) emission filters. For quantitative analysis a total of 250 cells were counted from each sample over 25 randomly chosen areas and the viable and non-viable cells counts were recorded.

Series [2] is described as follows: Fluorescence intensity of FITC-labeled OGP-Cat immobilized on TiO2. The following applies: 3 days in 25 mM HEPES buffer pH 7.4. The class given is physicochemical. As for the experimental part: Fluorescein-labeled modular peptide (FITC-labeled OGP-Cat) was also synthesized to visualize the presence of the immobilized peptides on TiO2 surface using fluorescence microscopy. (See, Example 13). After immobilization of FITC-labeled OGP-Cat onto TiO2 surfaces, the fluorescence intensity was much stronger compared to the control sample, which incubating TiO2-coated substrates in a solution of FITC at identical concentration. […] See, FIGS. 10A-B.
To study the stability of sequestered modular peptides on targeting surfaces, the modular peptide immobilized TiO2 substrates were immersed in 25 mM HEPES buffer (pH=7.4 at 25° C.) and incubated for different durations. The mean intensity of FITC-labeled OGP-Cat immobilized TiO2 substrates after incubation was quantified to detect the diffusion of FITC-labeled OGP-Cat into surrounding solution. (See FIG. 11). […] It is believed that the mismatch of retention time for the monovalent ligands may be attributed to the sensitivity difference of XPS and fluorescence microscopy. […]
The florescence intensity of FITC-OGP-(Cat)n (n=1, 2, and 4) on TiO2, Fe2O3, Fe3O4, ZrO2, CeO2, SiO2, and Au substrates was viewed with an inverted IX81 Microscope (Olympus, Center Valley, Pa.) with mercury bulb excitation and the appropriate filters. […] The mean intensity was calculated based on at least 10 randomly chosen sites observed under the same conditions.

Series [3] in a line: QCM-d adsorption of OGP-(Cat)4 to Al2O3. As to conditions: c=10 μM. The class given is binding. As for the experimental part: (§1) The adsorption of tetravalent binding ligand OGP-(Cat)4 to a wide range of materials was tested to identify common features of materials to which the catechol-bearing ligands of various embodiments of the present invention strongly bind. […] While not wanting to be bound by theory, it is believed that this is because the coordination bond between catechol and metals with empty d-orbitals or f-orbitals provides a stronger interaction than Hydrogen bonding. […] Therefore, it is believed that OGP-(Cat)4 will be highly useful for the functionalization of transition metal oxides.

Series [4] can be described thus: QCM-d adsorption of OGP-(Cat)4 to hydroxyapatite. The class given is binding. The following applies: c=10 μM. As for the experimental part: as §1
Series [5] can be described thus: QCM-d adsorption of catechol-functionalized dendrons to TiO2 surface. Format: binding. The following applies: for concentration to obtain ~6 Hz frequency shift: TiO2, 25° C., pH 7.4; for apparent disassociation constant Kd: 25° C., pH 7.4, single-site specific binding model; for maximum adsorption (Bmax): single-site specific binding model. As for the experimental part:
The adsorption processes of all molecules to TiO2 surfaces at 25° C. and pH 7.4 were monitored by quartz crystal microbalance with dissipation (QCM-d). (See Example 7). Multivalent binding effects that enhanced the binding affinity were clear. In FIG. 2, to obtain a similar level of adsorption, ˜6 Hz frequency shift, the concentration of monovalent ligand, OGP-Cat, was 13 μM, while that of tetravalent ligand, OGP-(Cat)4 and OGP-PEG-(Cat)4, was 0.32 and 0.16 μM, respectively due to the mass differences. A much smaller amount of sample (˜80-fold less) was needed for the tetravalent ligand OGP-PEG-(Cat)4 compared with the monovalent ligand OGP-Cat to achieve the same level (mass) of surface adsorption. […] Under similar conditions, the monovalent ligand was partially washed away. The adsorption kinetics were recorded by QCM-d, with regard to OGP-PEG-(Cat)4, and 2 hours were needed to reach the equilibrium state at a concentration of 0.16 μM.
To quantitatively compare the binding affinities of the multivalent binding ligands, their adsorption properties at several different concentrations were measured. The solutions at higher concentrations were switched to flow above the sensor, until the adsorption of previous solution at lower concentration reached the equilibrium state (the change in frequency shift is smaller than the signal fluctuation, 0.05 Hz/min), taking OGP-Cat as an example shown in FIG. 3A. In these experiments, the adsorption of OGP-Cat onto TiO2 surface at different concentrations was measured by QCM-d, while the concentration was increased sequentially (c1=0.068 μmol/L, c2=0.34 μmol/L, c3=1.8 μmol/L, c4=7.3 μmol/L, c5=13 μmol/L, and c6=34 μmol/L). At last the adsorbed layer was washed with 25 mM HEPES buffer. The flow rate was 0.150 mL/min. Three independent measurements (Sensors 1-3) are shown on FIG. 3A. The corresponding frequency shift was calculated using Sauerbrey Equation to get the adsorbed area mass. The adsorption isotherm of each molecule was drawn and fit with a single-site specific binding model to get the apparent disassociation constant (Kd) and maximum adsorption (Bmax) of OGP-Cat as in FIG. 3B and others in FIGS. 4A-F from the adsorbed area mass at the respective concentrations.
(§2) Quartz crystal microbalance with dissipation (QCM-d) was used to determine the binding isotherm for OGP-(Cat)4 on TiO2, Fe2O3, Fe3O4, ZrO2, CeO2, SiO2, and Au substrates. The AT cut sensors were purchased from Biolin Scientific AB (Sweden) and cleaned before use according to the protocol provided by the company. The sensor was excited at 5 MHz as its fundamental frequency. The frequency shift (Δf) and dissipation (ΔD) were measured at 3rd, 5th, 7th, 9th, 11th and 13th overtones. 25 mM HEPES buffer (pH=7.40 at 25° C.) was used as the flow medium. Sensors were mounted in the modules immediately after cleaning. […] Then solutions of catechol-bearing peptide (OGP-(Cat)4) in HEPES buffer were introduced and the flow continued until the adsorption reached its equilibrium state. If necessary, solutions at higher concentrations were introduced sequentially. Lastly, HEPES buffer was introduced again to wash the adsorbed layer. Three independent measurements were done simultaneously. The results are reported on FIG. 5.
The QCM-d measurements in Example 7 above may be used to calculate the adsorbed area mass. The adsorbed area mass was proportional to the frequency shift (Δf) and calculated by the Sauerbrey Equation. Sauerbrey Equation is
[formula] where C is the mass sensitivity constant with the value of 17.7 ng Hz^−1 cm^−2 for 5 MHz fundamental frequency crystal, n is the frequency overtone number, and n=7 was chosen to calculate the adsorption area mass. As long as the adsorbed mass is small compared to the crystal, sufficiently thin, and has limited viscoelastic coupling with the surrounding medium (ΔD<1×10^−6 per 10 Hz), this relationship is valid. […]

A short description of series [6]: QCM-d adsorption of OGP-(Cat)4 to gold. The class given is binding. As for the experimental part: as §1
as §2, with “If necessary, solutions at higher concentrations were introduced sequentially. Lastly, HEPES buffer was introduced again to wash the adsorbed layer. Three independent measurements were done simultaneously. The results are reported on FIG. 5.” left out

Series [7] is described as follows: QCM-d adsorption of OGP-(Cat)4 to ZrO2. The following applies: c=1 μM. Format: binding. As for the experimental part:
as §1
as §2, with “If necessary, solutions at higher concentrations were introduced sequentially. Lastly, HEPES buffer was introduced again to wash the adsorbed layer. Three independent measurements were done simultaneously. The results are reported on FIG. 5.” left out

Series [8] is described as follows: QCM-d adsorption of OGP-(Cat)4 to SiO2. The class given is binding. As for the experimental part: as §1
as §2, with “If necessary, solutions at higher concentrations were introduced sequentially. Lastly, HEPES buffer was introduced again to wash the adsorbed layer. Three independent measurements were done simultaneously. The results are reported on FIG. 5.” left out

Series [9] is described as follows: XPS of immobilized modular peptides on TiO2 substrates and retention in HEPES buffer. Format: physicochemical. As to conditions: HEPES buffer pH 7.4. As for the experimental part: Immobilization of peptides onto TiO2 surface was accomplished by immersing the TiO2 substrates into the corresponding modular peptide solution and incubating it overnight at ambient temperature. The successful immobilization of OGP-Cat and OGP-(Cat)4 onto TiO2-coated substrates were confirmed by XPS. Nitrogen is the element contained only in the modular peptides while not in bare TiO2, as shown in the XPS survey scan of bare TiO2 and OGP-(Cat)4 in FIG. 9A. […] It is noted that the N1s peaks in FIG. 9B are normalized to the highest intensity (O1s) for comparison of the signal to noise ratio.
To quantify the increase in nitrogen due to adsorption of OGP-Cat and OGP-(Cat)4, the nitrogen content (N1s) was normalized with Ti content (Ti2p), and compared with TiO2 substrate after incubation in HEPES buffer overnight (TiO2 as control), as show in Table 2, below.
To study the stability of sequestered modular peptides on targeting surfaces, the modular peptide immobilized TiO2 substrates were immersed in 25 mM HEPES buffer (pH=7.4 at 25° C.) and incubated for different durations. The mean intensity of FITC-labeled OGP-Cat immobilized TiO2 substrates after incubation was quantified to detect the diffusion of FITC-labeled OGP-Cat into surrounding solution. (See FIG. 11). […]

The nature of series [10]: QCM-d adsorption of OGP-(Cat)4 to CeO2. The class given is binding. As to conditions: c=1 μM. As for the experimental part:
as §1
as §2, with “If necessary, solutions at higher concentrations were introduced sequentially. Lastly, HEPES buffer was introduced again to wash the adsorbed layer. Three independent measurements were done simultaneously. The results are reported on FIG. 5.” left out

Series [11] can be described thus: QCM-d adsorption of OGP-(Cat)4 to iron oxide. Format: binding. As to conditions: c=1 μM. As for the experimental part: as §1
as §2, with “If necessary, solutions at higher concentrations were introduced sequentially. Lastly, HEPES buffer was introduced again to wash the adsorbed layer. Three independent measurements were done simultaneously. The results are reported on FIG. 5.” left out

Regarding `O=C(O)CNC(=O)CNC(=O)[C@H](Cc1ccccc1)NC(=O)CNC(=O)[C@H](Cc1ccc(O)cc1)NC(=O)[C@H](CCCCNC(=S)Nc1ccc2c(c1)C(=O)OC21c2ccc(O)cc2Oc2cc(O)ccc21)NC(=O)CCc1ccc(O)c(O)c1` [FITC-labeled OGP-Cat] (Dihydrocaffeoyl-K(FITC)YGFGG-OH), the viability at 24 h in series [1] was > 98%. Also, the “mean fluorescence intensity after incubation” value in series [2] is on record as “deceased by about a half”.
For `O=C(O)CNC(=O)CNC(=O)[C@H](Cc1ccccc1)NC(=O)CNC(=O)[C@H](Cc1ccc(O)cc1)NC(=O)[C@H](CCCCNC(=O)[C@H](CCCCNC(=O)CCc1ccc(O)c(O)c1)NC(=O)CCc1ccc(O)c(O)c1)NC(=O)[C@H](CCCCNC(=O)CCc1ccc(O)c(O)c1)NC(=O)CCc1ccc(O)c(O)c1` [OGP-(Cat)4] (Dihydrocaffeoyl-K(Dihydrocaffeoyl)K(X1)YGFGG-OH), the “adsorption to Al2O3” value in series [3] is recorded as “weakly adsorbed; also recorded: Limited adsorption”. Besides, the “adsorption to hydroxyapatite (HA)” value in [4] is “weakly adsorbed; also recorded: Limited adsorption”. Also, the “concentration to obtain ~6 Hz frequency shift” value in series [5] amounted to 0.32 µM. Further, in series [5] (TiO2 surface), binding was put at a Kd of 31 ± 3 nM, the “apparent disassociation constant Kd” value was determined as 0.031 ± 0.003 µM and the “maximum adsorption (Bmax)” value was 160 ± 6 ng/cm^2. Besides, the “binding to TiO2” value in [5] (c=1 μM) is “strongest binding”. Besides, the “enhancement parameter β = Ka,multi/Ka,mono” value in [5] (multivalent vs monovalent ligand within set with or without PEG linkage) is 184. Also, the “coverage of binding sites / maximum adsorption on TiO2” value in series [5] (solution at 100×Kd (2.8 μM) or Kd (28 nmol/L)) was found to be 99%. Besides, the “adsorption to gold” value in series [6] (c=1 μM) is reported as “some adsorption”. In addition, the “adsorption to Au” value in series [6] (c=10 μM) is listed as “relatively strongly adsorbed”. Further, the “binding to ZrO2” value in series [7] is “strongest binding”. In addition, the “adsorption to SiO2” value in [8] (c=1 μM) is reported as “weak adsorption”. In addition, the “adsorption to SiO2” value in series [8] (c=10 μM) was “weakly adsorbed; also recorded: Limited adsorption”. Also, in series [9], the “incubation time after which decrease of N1s signal was detected” value came to 14 days. Further, in series [10], the “binding to CeO2” value was “strongest binding”. In series [11], the “binding to iron oxide” value was “strong binding”.
In the case of `NCCCC[C@H](NC(=O)CCc1ccc(O)c(O)c1)C(=O)N[C@@H](Cc1ccc(O)cc1)C(=O)NCC(=O)N[C@@H](Cc1ccccc1)C(=O)NCC(=O)NCC(=O)O` [OGP-Cat] (Dihydrocaffeoyl-KYGFGG-OH), the “concentration to obtain ~6 Hz frequency shift” value in [5] amounted to 13 µM. For the same compound, in series [5] (TiO2 surface), the “apparent disassociation constant Kd” value turned out to be 5.7 ± 0.2 µM and the “maximum adsorption (Bmax)” value is given as 54 ± 4 ng/cm^2. In series [9], the “incubation time after which decrease of N1s signal was detected” value amounted to 0.5 days.

(Values after patent publication US10765748B2, “Composition and methods for tethering bioactive peptides to metal oxide surfaces” (University of Akron, priority 2014, dated 2020).)
